In ChEMBL document CHEMBL3045868, “Synthesis and antibacterial activities of para-alkoxy phenyl--ketoaldehyde derivatives” (Med Chem Res, 2013):
≈ marks a conversion by molar mass, not a printed value.

How the values were obtained:
Helicobacter pylori [1] = assay: Antibacterial activity against Helicobacter pylori 06-8 assessed as growth inhibition after 16 to 18 hr NCCLS agar dilution method; assay type: functional
Helicobacter pylori [2] = assay: Antibacterial activity against Helicobacter pylori 06-7 assessed as growth inhibition after 16 to 18 hr NCCLS agar dilution method; assay type: functional
Helicobacter pylori [3] = assay: Antibacterial activity against Helicobacter pylori 05-14 assessed as growth inhibition after 16 to 18 hr NCCLS agar dilution method; assay type: functional
Helicobacter pylori [4] = assay: Antibacterial activity against Helicobacter pylori 05-12 assessed as growth inhibition after 16 to 18 hr NCCLS agar dilution method; assay type: functional
Helicobacter pylori [5] = assay: Antibacterial activity against Helicobacter pylori 05-9 assessed as growth inhibition after 16 to 18 hr NCCLS agar dilution method; assay type: functional
Helicobacter pylori [6] = assay: Antibacterial activity against Helicobacter pylori 05-5 assessed as growth inhibition after 16 to 18 hr NCCLS agar dilution method; assay type: functional
Helicobacter pylori [7] = assay: Antibacterial activity against Helicobacter pylori 05-4 assessed as growth inhibition after 16 to 18 hr NCCLS agar dilution method; assay type: functional, 05-Apr
Helicobacter pylori [8] = assay: Antibacterial activity against Helicobacter pylori 05-2 assessed as growth inhibition after 16 to 18 hr NCCLS agar dilution method; assay type: functional
Helicobacter pylori [9] = assay: Antibacterial activity against Helicobacter pylori 05-1 assessed as growth inhibition after 16 to 18 hr NCCLS agar dilution method; assay type: functional
Helicobacter pylori [10] = assay: Antibacterial activity against Helicobacter pylori ATCC 11637 assessed as growth inhibition after 16 to 18 hr NCCLS agar dilution method; assay type: functional
Pseudomonas aeruginosa = assay: Antibacterial activity against Pseudomonas aeruginosa ATCC 27853 assessed as growth inhibition after 16 to 18 hr NCCLS agar dilution method; assay type: functional
Escherichia coli = assay: Antibacterial activity against Escherichia coli ATCC 25922 assessed as growth inhibition after 16 to 18 hr NCCLS agar dilution method; assay type: functional
Staphylococcus aureus = assay: Antibacterial activity against Staphylococcus aureus ATCC 25923 assessed as growth inhibition after 16 to 18 hr by NCCLS agar dilution method; assay type: functional
Helicobacter pylori [11] = assay: Antibacterial activity against Helicobacter pylori 06-6 assessed as growth inhibition after 16 to 18 hr NCCLS agar dilution method; assay type: functional
Helicobacter pylori [12] = assay: Antibacterial activity against Helicobacter pylori 06-5 assessed as growth inhibition after 16 to 18 hr NCCLS agar dilution method; assay type: functional
Helicobacter pylori [13] = assay: Antibacterial activity against Helicobacter pylori 06-4 assessed as growth inhibition after 16 to 18 hr NCCLS agar dilution method; assay type: functional
Helicobacter pylori [14] = assay: Antibacterial activity against Helicobacter pylori 06-3 assessed as growth inhibition after 16 to 18 hr NCCLS agar dilution method; assay type: functional
Helicobacter pylori [15] = assay: Antibacterial activity against Helicobacter pylori 06-2 assessed as growth inhibition after 16 to 18 hr NCCLS agar dilution method; assay type: functional
Helicobacter pylori [16] = assay: Antibacterial activity against Helicobacter pylori 06-1 assessed as growth inhibition after 16 to 18 hr NCCLS agar dilution method; assay type: functional
Helicobacter pylori [17] = assay: Antibacterial activity against Helicobacter pylori 05-3 assessed as growth inhibition after 16 to 18 hr NCCLS agar dilution method; assay type: functional
Helicobacter pylori [18] = assay: Antibacterial activity against Helicobacter pylori assessed as growth inhibition after 16 to 18 hr NCCLS agar dilution method; assay type: functional

Row | Structure (SMILES) | MIC (Helicobacter pylori [1]) | MIC (Helicobacter pylori [2]) | MIC (Helicobacter pylori [3]) | MIC (Helicobacter pylori [4]) | MIC (Helicobacter pylori [5]) | MIC (Helicobacter pylori [6]) | MIC (Helicobacter pylori [7]) | MIC (Helicobacter pylori [8]) | MIC (Helicobacter pylori [9]) | MIC (Helicobacter pylori [10]) | MIC (Pseudomonas aeruginosa) | MIC (Helicobacter pylori [11]) | MIC (Helicobacter pylori [12]) | MIC (Helicobacter pylori [13]) | MIC (Helicobacter pylori [14]) | MIC (Helicobacter pylori [15]) | MIC (Helicobacter pylori [16]) | MIC (Helicobacter pylori [17]) | MIC50 (Helicobacter pylori [18]) | MIC90 (Helicobacter pylori [18]) | also measured
1 | COc1ccc(C(=O)C/C=N/O)cc1 | > 128 µg/mL | 64 µg/mL (≈ 331 µM) | > 128 µg/mL | > 128 µg/mL | > 128 µg/mL | > 128 µg/mL | > 128 µg/mL | > 128 µg/mL | > 128 µg/mL | 64 µg/mL (≈ 331 µM) | > 64 µg/mL | 64 µg/mL (≈ 331 µM) | 64 µg/mL (≈ 331 µM) | > 128 µg/mL | 64 µg/mL (≈ 331 µM) | > 128 µg/mL | 64 µg/mL (≈ 331 µM) | > 128 µg/mL | > 128 µg/mL | > 128 µg/mL | MIC (Escherichia coli): > 64 µg/mL; MIC (Staphylococcus aureus): 4 µg/mL (≈ 20.7 µM)
2 | COc1ccc(C(=O)CC(O)S(=O)(=O)[O-])cc1.[Na+] (stereo unspecified) | > 128 µg/mL | > 128 µg/mL | > 128 µg/mL | > 128 µg/mL | > 128 µg/mL | > 128 µg/mL | > 128 µg/mL | > 128 µg/mL | > 128 µg/mL | > 128 µg/mL | > 64 µg/mL | > 128 µg/mL | > 128 µg/mL | > 128 µg/mL | > 128 µg/mL | > 128 µg/mL | > 128 µg/mL | > 128 µg/mL | > 128 µg/mL | > 128 µg/mL | MIC (Escherichia coli): > 64 µg/mL; MIC (Staphylococcus aureus): > 64 µg/mL
3 | Cc1ncc([N+](=O)[O-])n1CCO [METRONIDAZOLE] | > 128 µg/mL | > 128 µg/mL | > 128 µg/mL | > 128 µg/mL | > 128 µg/mL | > 128 µg/mL | > 128 µg/mL | > 128 µg/mL | > 128 µg/mL | 32 µg/mL (≈ 187 µM) | – | > 128 µg/mL | > 128 µg/mL | > 128 µg/mL | > 128 µg/mL | > 128 µg/mL | > 128 µg/mL | > 128 µg/mL | > 128 µg/mL | > 128 µg/mL | –
4 | CC[C@H]1OC(=O)[C@H](C)[C@@H](O[C@H]2C[C@@](C)(OC)[C@@H](O)[C@H](C)O2)[C@H](C)[C@@H](O[C@@H]2O[C@H](C)C[C@H](N(C)C)[C@H]2O)[C@](C)(OC)C[C@@H](C)C(=O)[C@H](C)[C@@H](O)[C@]1(C)O [CLARITHROMYCIN] | > 128 µg/mL | 128 µg/mL (≈ 171 µM) | > 128 µg/mL | > 128 µg/mL | > 128 µg/mL | > 128 µg/mL | > 128 µg/mL | 64 µg/mL (≈ 85.6 µM) | > 128 µg/mL | 32 µg/mL (≈ 42.8 µM) | > 64 µg/mL | 128 µg/mL (≈ 171 µM) | > 128 µg/mL | > 128 µg/mL | > 128 µg/mL | > 128 µg/mL | 64 µg/mL (≈ 85.6 µM) | 64 µg/mL (≈ 85.6 µM) | > 128 µg/mL | > 128 µg/mL | MIC (Escherichia coli): 32 µg/mL (≈ 42.8 µM); MIC (Staphylococcus aureus): 0.12 µg/mL (≈ 0.16 µM)
5 | COc1ccc(C(=O)/C=C\O)cc1 | > 128 µg/mL | 128 µg/mL (≈ 718 µM) | > 128 µg/mL | > 128 µg/mL | > 128 µg/mL | > 128 µg/mL | > 128 µg/mL | > 128 µg/mL | > 128 µg/mL | 128 µg/mL (≈ 718 µM) | > 64 µg/mL | 128 µg/mL (≈ 718 µM) | 128 µg/mL (≈ 718 µM) | 128 µg/mL (≈ 718 µM) | > 128 µg/mL | > 128 µg/mL | > 128 µg/mL | > 128 µg/mL | > 128 µg/mL | > 128 µg/mL | MIC (Escherichia coli): > 64 µg/mL; MIC (Staphylococcus aureus): > 64 µg/mL
6 | COc1ccc(C(=O)C/C=N/NC(N)=O)cc1 | > 128 µg/mL | 128 µg/mL (≈ 544 µM) | > 128 µg/mL | > 128 µg/mL | > 128 µg/mL | > 128 µg/mL | > 128 µg/mL | > 128 µg/mL | > 128 µg/mL | > 128 µg/mL | > 64 µg/mL | 128 µg/mL (≈ 544 µM) | > 128 µg/mL | > 128 µg/mL | > 128 µg/mL | > 128 µg/mL | > 128 µg/mL | > 128 µg/mL | > 128 µg/mL | > 128 µg/mL | MIC (Escherichia coli): > 64 µg/mL; MIC (Staphylococcus aureus): > 64 µg/mL
7 | COc1ccc(C(=O)C/C=N/NC(N)=S)cc1 | > 128 µg/mL | 128 µg/mL (≈ 509 µM) | > 128 µg/mL | > 128 µg/mL | > 128 µg/mL | > 128 µg/mL | > 128 µg/mL | > 128 µg/mL | > 128 µg/mL | > 128 µg/mL | > 64 µg/mL | 128 µg/mL (≈ 509 µM) | > 128 µg/mL | > 128 µg/mL | > 128 µg/mL | > 128 µg/mL | > 128 µg/mL | > 128 µg/mL | > 128 µg/mL | > 128 µg/mL | MIC (Escherichia coli): > 64 µg/mL; MIC (Staphylococcus aureus): > 64 µg/mL
